In US11813268B2, “Mitofusin activators and uses thereof” (Albert Einstein College of Medicine, priority 2017, dated 2023):

Key:
[1] = system: MFN1/MFN2 DKO MEFs; conditions: 1 μM, 2 h
Protocol: Mitochondrial respiration. Mitochondrial oxygen consumption rates (OCR) were assessed using a XF24 Analyzer (Seahorse Biosciences, Billerica Mass., USA). […] OCR was normalized to cell number or total protein content per well for each condition tested. […] Data are expressed as Mean±SEM, OCR from untreated control for each condition; using n=3-5 individual experiments with n=3-5 replicates for each group tested.

[2] = system: cancer cells; experiment: Toxicity in cancer cells; conditions: 15 μM, 72 h
Description: (§1) TMRE staining was used as readout. […] CellROX was used to evaluate ROS levels.

[3] = system: MFN1/MFN2 DKO MEFs reconstituted with WT, L727A and D725A/L727A MFN2; conditions: L727A and D725A/L727A MFN2 vs WT
Protocol: Evaluation of mitochondrial morphology using mitochondrial aspect ratio (Mito AR; length/width) as a readout. […] Mitotracker green stains mitochondria. Scale bar 20 μm. […] Quantification of Mito AR in MFN1/MFN2 DKO MEFs reconstituted with WT, L727A and D725A/L727A MFN2.
Live cell imaging. […] Images were taken with Leica SP5 inverted confocal microscope. Data were analyzed with Image J software. >200 mitochondria were measured per condition in mitochondrial aspect ratio.

[4] = system: Farage cells; experiment: ROS levels (CellROX) in Farage cells
Description: as §1

[5] = system: WT MEFs; experiment: cells
Description: Next, it was visually examined if MASM7 could induce mitochondrial fusion in MEFs, using mitochondrial aspect ratio (mitochondrial length/width, reflecting fusion) as a readout. […] (FIG. 5).

[6] = system: MEFs; experiment: Staurosporine-induced apoptosis (active caspase 3) in MEFs; type: cell-based; conditions: co-treated with staurosporine (STS)
Protocol: Transfected HEK 293T or MEFs were washed with once PBS and fixed with 2% PFA for 13 min. Subsequently, cells were blocked, then incubated for 1 h at room temperature with the primary antibody for ATP5B (Abcam; ab128743) or active caspase 3 (R&D Systems; AF835). After incubation with the primary antibody, cells were washed with PBS and incubated for 1 h at room temperature with the secondary antibody (ThermoFisher Scientific; A11010). […] Data were analyzed with Image J software.
Consistent with previous reports showing that inhibition of fission reduced apoptosis (8,12-14), the effect of MASM7 was evaluated upon a classic apoptotic stimulus such as staurosporine (STS) in MEFs.

[7] = system: MEFs; experiment: Caspase-3/7 activation assay in MEFs; type: cell-based; conditions: 5 μM, 24 h
Protocol: Cells (5×10^3 cells/well) were seeded in a 96-well white plate and treated with MASM7 (5 μM), doxorubicin (1 μM) or vehicle (0.05% DMSO). Caspase 3/7 activation was measured after 24 h by addition of the Caspase-Glo 3/7 chemiluminescence reagent according to the manufacturer's protocol (Promega). Luminescence was detected by a […] microplate reader (TECAN).

[8] = system: Farage cells; experiment: TMRE mitochondrial membrane potential in Farage cells
Description: as §1

[9] = system: MEFs; experiment: Cell viability assay (CellTiter-Glo) in MEFs; type: cell-based; conditions: 24 h
Protocol: Cells (5×10^3 cells/well) were seeded in a 96-well white plate and treated with serial dilutions of MASM7 or vehicle (0.1% DMSO). Cell viability was assayed after 24 h by addition of CellTiter-Glo reagent according to the manufacturer's protocol (Promega). Luminescence was measured using a F200 PRO microplate reader (TECAN). Viability assays were performed in at least triplicate and the data normalized to vehicle-treated control wells. Dilutions of MASM7 were performed using a TECAN D300e Digital Dispenser from 10 mM stocks.

[10] = system: lymphoma cells; experiment: Viability of lymphoma cells
Description: as §1

[11] = system: WT MEFs; experiment: Mitochondrial respiration (Seahorse OCR) in WT MEFs; conditions: 1 μM, 2 h
[12] = system: Farage cells; experiment: Caspase 3 activation in Farage cells
Description: as §1

[13] = system: MEFs; experiment: TMRE mitochondrial membrane potential assay in MEFs; type: cell-based; conditions: 5 μM, 24 h
Protocol: Carbonyl cyanide 3-chlorophenylhydrazone (CCP) was used as a positive control (20 μM, 40 min). Following treatments, cells were stained with 400 nM TMRE (Sigma Cat. 87917) for 20 min at 37° C. Subsequently, cells were washed with once with PBS. Fluorescence intensity was detected by a M100 microplate reader (TECAN, Ex: 540 nm/Em: 579 nm).

Question: What does the source list for `CC(Sc1nnc(C2CC2)n1-c1ccccc1)C(=O)Nc1sc2c(c1C(N)=O)CCC2` (stereo not drawn) [MASM7]?
Answer: Basal and maximal OCR, MFN1/MFN2 DKO MEFs [1]: does not increase basal and maximal OCR; Toxicity in the indicated cancer cells [2]: low to moderate toxicity; MASM7-induced fusion (Mito AR) with HR2 domain mutations of Mfn2 [3]: inhibits MASM7-induced fusion; ROS levels in Farage cells (CellROX) [4]: increases ROS levels; Mitochondrial aspect ratio in WT MEFs ([5]; 1 μM, 2 h): increased mitochondrial aspect ratio; EC50 ([5]; read-out: EC50 for inducing fusion (Mito AR)): 0.075 µM; Population of MEFs positive to caspase 3 activation [6]: reduced significantly; Caspase 3/7 activation in MEFs [7]: did not induce caspase 3/7 activation; Mitochondrial membrane potential in Farage cells (TMRE) [8]: reduces mitochondrial membrane potential in a dose and time dependent manner; Viability of MEFs [9]: did not reduce viability; Viability of lymphoma cells [10]: reduces viability selectively in lymphoma cells; ATP production, WT MEFs [11]: increases ATP production; Basal and maximal oxygen consumption rate (OCR), WT MEFs [11]: increases basal and maximal oxygen consumption rate (OCR); Caspase 3 activation in Farage cells [12]: promotes caspase 3 activation in a dose and time dependent manner; Mitochondrial membrane potential in MEFs (TMRE) [13]: did not reduce viability or mitochondrial membrane potential
